We go through 8 compounds from publication PMC4750701, “Role of Mitochondrial RNA Polymerase in the Toxicity of Nucleotide Inhibitors of Hepatitis C Virus” (Antimicrobial Agents and Chemotherapy, 2016).

Where two headings read alike, the source gives them in different places. A value given as a limit tells only on which side of the number the result lay.

Series [1] concerns the target T1, Human DNA polymerase alpha (Homo sapiens, UniProt P09884).
T1 construct: isolated from HeLa cell extracts; purchased CHIMERx (Madison, WI); host or cells: HeLa cell extracts (endogenous enzyme)
Description: Inhibition of human DNA polymerase alpha. Type of series: biochemical. The note with it: triphosphate form of the compound tested; read-out: Mean IC50 ± SD for DNA Pol α. An excerpt: (§1) Activated fish sperm DNA was purchased from USB/Affymetrix (Santa Clara, CA) and used as a template for the DNA polymerases alpha, beta, and gamma. […] The RNA and DNA oligonucleotides used in the mitochondrial RNA polymerase assay (see Table S1 in the supplemental material) were synthesized and PAGE purified by Thermo Scientific/Dharmacon (Lafayette, CO). RNA primer R12 was 5′-^32P-phosphorylated with [γ-^32P]ATP (3,000 Ci/mmol) and T4 kinase (New England BioLabs, Ipswich, MA).
(§2) Human DNA polymerase alpha, isolated from HeLa cell extracts, was from CHIMERx (Madison, WI). Recombinant human DNA polymerase beta, expressed in E. coli, was a gift from Zucai Suo at The Ohio State University. Recombinant human DNA polymerase gamma (including both the large subunit and the small subunit) was cloned, expressed, and purified from insect cells by Gilead Sciences (Foster City, CA) ([13]). RNA PolII was purchased as part of the HeLaScribe nuclear extract in vitro transcription system kit from Promega (Madison, WI). The recombinant human PolRMT and the transcription factors mitochondrial transcription factor A (mtTFA) and B2 (mtTFB2) were purchased from Enzymax (Lexington, KY). FLAG epitope-tagged RNA PolI and PolIII complexes were isolated from rat NSN1 cells and HeLa cells, respectively ([17], [18]). The inhibition of DNA polymerases alpha, beta, and gamma, PolRMT, and PolII and the rate of single-nucleotide incorporation by PolRMT have been described previously in detail ([12], [13], [19]). Inhibition of RNA PolI and PolIII was studied using published methods ([20], [21]). All concentrations were final unless noted otherwise. […] After incubation at 30°C for 20 min to 1 h, the reactions were terminated by pipetting the mixtures onto DEAE-cellulose discs (DE81; Whatman), and the products analyzed as described previously ([20], [21]).

Series [2] deals with T2, Recombinant human DNA polymerase beta (Homo sapiens, UniProt P06746).
T2 construct: host or cells: E. coli
The series is described as follows: Inhibition of human DNA polymerase beta. Type of series: biochemical. The following applies: triphosphate form of the compound tested; read-out: Mean IC50 ± SD for DNA Pol β.
Source text: (§3) Activated fish sperm DNA was purchased from USB/Affymetrix (Santa Clara, CA) and used as a template for the DNA polymerases alpha, beta, and gamma. The DNA template used in the RNA Pol II assay was a 1,188-bp restriction fragment containing the cytomegalovirus (CMV) immediate early promoter (Promega, Madison, WI). The RNA and DNA oligonucleotides used in the mitochondrial RNA polymerase assay (see Table S1 in the supplemental material) were synthesized and PAGE purified by Thermo Scientific/Dharmacon (Lafayette, CO). RNA primer R12 was 5′-^32P-phosphorylated with [γ-^32P]ATP (3,000 Ci/mmol) and T4 kinase (New England BioLabs, Ipswich, MA).
as §2, with “otherwise. For the RNA PolI inhibition assay, a reaction mixture containing 50 mM HEPES (pH 7.9), 20% glycerol, 100 mM KCl, 1 mM dithiothreitol (DTT), 50 μg/ml calf thymus DNA, 4 mM MgCl2, 5 or 80 μM UTP (0.25 μl of [5,6-^3H]UTP, >25 Ci/mmol; PerkinElmer), 1 mM noncompeting NTP, competing NTP (5 μM for GTP, CTP, and UTP and 25 μM for ATP), and various concentrations (0 to 500 μM) of NTP analogs was preincubated at 30°C for 5 min.” for “otherwise.”

In a further series the target is T3, RNA PolII (Homo sapiens, UniProt P24928+P30876).
T3 construct: purchased as part of the HeLaScribe nuclear extract in vitro transcription system kit; purchased Promega (Madison, WI); host or cells: HeLa nuclear extract (endogenous enzyme)
The series is described as follows: Inhibition of RNA PolII (HeLaScribe nuclear extract transcription). The note with it: read-out: Mean IC50 ± SD for RNA PolII. It is filed as biochemical.
Source text: as §3
as §2, with “otherwise. For the RNA PolI inhibition assay, a reaction mixture containing 50 mM HEPES (pH 7.9), 20% glycerol, 100 mM KCl, 1 mM dithiothreitol (DTT), 50 μg/ml calf thymus DNA, 4 mM MgCl2, 5 or 80 μM UTP (0.25 μl of [5,6-^3H]UTP, >25 Ci/mmol; PerkinElmer), 1 mM noncompeting NTP, competing NTP (5 μM for GTP, CTP, and UTP and 25 μM for ATP), and various concentrations (0 to 500 μM) of NTP analogs was preincubated at 30°C for 5 min.” for “otherwise.”

For the next series, the target named is T4, recombinant human PolRMT (Homo sapiens, UniProt O00411).
T4 construct: purchased Enzymax (Lexington, KY)
Description: Inhibition of PolRMT-catalyzed RNA synthesis. The note with it: triphosphate form of the compound tested (Table 4); read-out: Mean IC50 ± SD for PolRMT. Type of series: biochemical.
Source text: as §1, §2

The test system of series [3] is nuclear DNA-encoded succinate dehydrogenase (SDH-A; complex II) protein level. The series is described as follows: Nuclear protein synthesis (SDH-A, MitoBiogenesis in-cell ELISA) in PC-3 cells. It is filed as cell-based, human. The note with it: human, read-out: Mean CC50 ± SD causing General cellular toxicity: Protein synthesis. The gist of the method:
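PC-3 cells were exposed to compound for 5 days. Protein levels of nuclear-encoded SDH-A and mitochondrial-encoded COX-1 were then quantified by in-cell ELISA (quantitative immunocytochemistry).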
On the technique in general: An ELISA detects its analyte on a solid surface through an enzyme-linked reagent.

Series [4] in a line: Cytotoxicity in MT-4 T-cells, 5-day treatment. The following applies: human, MT-4 cells.
Description: (§4) Primary human hepatocytes were from Bioreclamation IVT (Westbury, NY) or Life Technologies (Carlsbad, CA).
(§5) All cells were cultured at 37°C in a 5% CO2 incubator with 90% humidity unless noted otherwise. […] All cells were treated with the various compounds for 5 days, except for human erythroid and myeloid progenitors, which were treated for 14 days. After the incubation period, cell viability was measured by the addition of CellTiter Glo viability reagents (Promega, Madison, WI). The luminescence signal was quantified on an Envision luminescence plate reader (PerkinElmer, Waltham, MA) after incubation of the reagents and cells for 10 min at room temperature. […] CC50 values were calculated as the average of the results of three or four independent experiments.
Series [5] can be described thus: Cytotoxicity in MRC5 fibroblasts, 5-day treatment. The following applies: human, MRC5 fibroblasts.
Series [6] can be described thus: Cytotoxicity in primary human hepatocytes, 5 days. The note with it: human, primary human hepatocytes.
Description: as §4, §5
The subject of series [7] is mitochondrial spare respiratory capacity. Description: Oxygen consumption rate / spare respiratory capacity in PC-3 cells. The note with it: human, pH 7.4.
Description: Mitochondrial respiration was monitored by measuring the rate of oxygen consumption (OCR) of PC-3 cells after 3-day treatments with the compounds, using a Seahorse extracellular flux analyzer (XF^e-96) based on published protocols ([22][–][24]). The optimal cell seeding was determined by measuring the basal OCR of PC-3 cells that were seeded at different densities of 2.5 × 10^3, 5 × 10^3, 7.5 × 10^3, and 10 × 10^3 cells/well in XF 96-well plates (Seahorse Bioscience, North Billerica, MA) and incubated with 0.5% dimethyl sulfoxide (DMSO) for 3 days. […] Each reagent in the Mito Stress test kit (Seahorse Biosciences), i.e., ATP synthase inhibitor oligomycin, mitochondrial uncoupler carbonyl cyanide-4-(trifluoromethoxy)phenylhydrazone (FCCP), and a fixed-ratio mixture of the mitochondrial complex I (NADH dehydrogenase) inhibitor rotenone and the complex III (CoQH2-cytochrome c reductase) inhibitor antimycin A, was titrated. The lowest concentration that reached the maximal effect was chosen for each reagent. The OCR signals were normalized by cell numbers using DNA content determined by Hoechst's stain as described below.
PC-3 cells were seeded at a density of 5 × 10^3 cells/well in XF 96-well plates and incubated with the compounds for 3 days. On the day of the assay, the cell medium was replaced with XF assay medium (pH 7.4) containing 10 mM glucose and 1 mM freshly prepared pyruvate. Mitochondrial respiration was monitored by measuring OCR on a Seahorse extracellular flux analyzer (XF^e-96). All concentrations listed are the final concentration after mixing unless noted otherwise. […] Spare respiratory capacity was obtained by subtracting the rate of basal respiration from the rate of maximal respiration.
The cells were lysed by freezing at −80°C for >2 h. […] In parallel, another set of cells was treated with the compounds for 3 days and the ATP levels were measured using CellTiter Glo viability reagents (Promega, Madison, WI).
[8] abbreviates: triphosphate form of the compound tested (Table 4).

T4 sequence (O00411 42-1230): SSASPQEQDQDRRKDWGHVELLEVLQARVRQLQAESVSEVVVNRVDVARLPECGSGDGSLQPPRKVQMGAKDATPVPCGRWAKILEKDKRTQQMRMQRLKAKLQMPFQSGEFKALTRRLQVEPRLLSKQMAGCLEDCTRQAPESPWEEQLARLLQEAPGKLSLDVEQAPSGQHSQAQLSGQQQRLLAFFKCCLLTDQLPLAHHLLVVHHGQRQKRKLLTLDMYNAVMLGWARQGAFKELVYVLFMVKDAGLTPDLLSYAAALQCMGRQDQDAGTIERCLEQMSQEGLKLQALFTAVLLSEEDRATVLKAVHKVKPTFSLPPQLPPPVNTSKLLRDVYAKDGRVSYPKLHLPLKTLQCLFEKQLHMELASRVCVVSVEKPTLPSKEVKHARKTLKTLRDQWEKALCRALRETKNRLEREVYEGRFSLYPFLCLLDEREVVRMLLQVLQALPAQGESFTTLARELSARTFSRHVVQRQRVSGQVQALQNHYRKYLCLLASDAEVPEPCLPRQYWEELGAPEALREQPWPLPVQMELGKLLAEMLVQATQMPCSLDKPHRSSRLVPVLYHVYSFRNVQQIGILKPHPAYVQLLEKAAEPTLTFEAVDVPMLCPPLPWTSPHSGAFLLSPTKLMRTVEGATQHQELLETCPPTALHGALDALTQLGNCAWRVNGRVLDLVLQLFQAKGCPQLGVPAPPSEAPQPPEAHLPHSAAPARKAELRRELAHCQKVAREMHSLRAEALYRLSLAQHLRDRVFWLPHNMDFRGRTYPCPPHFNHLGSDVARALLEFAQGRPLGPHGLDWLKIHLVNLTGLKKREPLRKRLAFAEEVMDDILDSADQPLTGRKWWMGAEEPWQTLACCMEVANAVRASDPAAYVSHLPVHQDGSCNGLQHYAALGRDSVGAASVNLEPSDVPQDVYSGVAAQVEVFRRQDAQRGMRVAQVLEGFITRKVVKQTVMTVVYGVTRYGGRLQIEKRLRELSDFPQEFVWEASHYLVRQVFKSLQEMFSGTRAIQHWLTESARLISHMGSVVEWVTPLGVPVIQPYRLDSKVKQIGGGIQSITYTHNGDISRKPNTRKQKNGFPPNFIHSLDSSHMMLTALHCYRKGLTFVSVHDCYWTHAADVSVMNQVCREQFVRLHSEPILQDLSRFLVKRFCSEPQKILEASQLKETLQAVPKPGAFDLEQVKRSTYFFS
T1 sequence (P09884 whole entry): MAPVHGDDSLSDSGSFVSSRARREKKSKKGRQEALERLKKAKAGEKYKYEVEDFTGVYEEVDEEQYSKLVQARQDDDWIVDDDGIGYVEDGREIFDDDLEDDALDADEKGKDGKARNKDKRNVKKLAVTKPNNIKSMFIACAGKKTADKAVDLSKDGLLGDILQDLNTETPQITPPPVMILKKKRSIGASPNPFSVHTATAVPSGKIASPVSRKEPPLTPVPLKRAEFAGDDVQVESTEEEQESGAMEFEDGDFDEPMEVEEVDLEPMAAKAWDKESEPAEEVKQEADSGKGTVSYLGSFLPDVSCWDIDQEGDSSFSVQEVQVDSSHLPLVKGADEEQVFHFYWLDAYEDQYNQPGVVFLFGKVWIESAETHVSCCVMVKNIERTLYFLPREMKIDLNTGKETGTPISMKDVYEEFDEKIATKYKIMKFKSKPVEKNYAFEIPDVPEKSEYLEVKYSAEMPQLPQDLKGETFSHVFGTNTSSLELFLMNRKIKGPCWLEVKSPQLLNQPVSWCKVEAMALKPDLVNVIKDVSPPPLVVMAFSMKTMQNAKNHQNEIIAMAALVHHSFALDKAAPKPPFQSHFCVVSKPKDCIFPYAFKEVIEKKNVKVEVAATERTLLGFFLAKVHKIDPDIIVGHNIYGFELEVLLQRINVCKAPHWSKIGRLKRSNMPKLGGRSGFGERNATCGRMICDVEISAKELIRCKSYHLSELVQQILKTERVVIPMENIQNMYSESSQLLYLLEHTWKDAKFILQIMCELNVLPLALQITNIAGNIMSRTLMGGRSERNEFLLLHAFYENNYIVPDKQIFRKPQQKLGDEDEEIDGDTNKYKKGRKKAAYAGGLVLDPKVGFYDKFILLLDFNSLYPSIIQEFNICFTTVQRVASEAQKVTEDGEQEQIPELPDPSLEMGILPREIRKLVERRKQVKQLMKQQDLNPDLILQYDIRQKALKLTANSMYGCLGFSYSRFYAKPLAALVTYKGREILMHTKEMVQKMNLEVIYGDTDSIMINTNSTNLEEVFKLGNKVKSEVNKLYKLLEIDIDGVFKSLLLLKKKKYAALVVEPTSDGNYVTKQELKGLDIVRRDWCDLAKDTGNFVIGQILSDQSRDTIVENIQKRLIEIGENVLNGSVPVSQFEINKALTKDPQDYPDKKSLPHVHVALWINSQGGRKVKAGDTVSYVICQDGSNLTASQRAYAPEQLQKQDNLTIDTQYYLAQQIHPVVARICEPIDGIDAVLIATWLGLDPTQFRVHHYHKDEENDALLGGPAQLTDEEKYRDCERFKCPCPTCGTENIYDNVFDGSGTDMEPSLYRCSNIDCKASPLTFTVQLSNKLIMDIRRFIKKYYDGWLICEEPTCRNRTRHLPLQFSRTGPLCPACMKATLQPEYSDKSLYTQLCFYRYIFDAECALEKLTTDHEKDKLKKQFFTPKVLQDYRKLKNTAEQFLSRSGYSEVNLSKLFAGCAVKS
T1 sequence (Q14181 whole entry partner): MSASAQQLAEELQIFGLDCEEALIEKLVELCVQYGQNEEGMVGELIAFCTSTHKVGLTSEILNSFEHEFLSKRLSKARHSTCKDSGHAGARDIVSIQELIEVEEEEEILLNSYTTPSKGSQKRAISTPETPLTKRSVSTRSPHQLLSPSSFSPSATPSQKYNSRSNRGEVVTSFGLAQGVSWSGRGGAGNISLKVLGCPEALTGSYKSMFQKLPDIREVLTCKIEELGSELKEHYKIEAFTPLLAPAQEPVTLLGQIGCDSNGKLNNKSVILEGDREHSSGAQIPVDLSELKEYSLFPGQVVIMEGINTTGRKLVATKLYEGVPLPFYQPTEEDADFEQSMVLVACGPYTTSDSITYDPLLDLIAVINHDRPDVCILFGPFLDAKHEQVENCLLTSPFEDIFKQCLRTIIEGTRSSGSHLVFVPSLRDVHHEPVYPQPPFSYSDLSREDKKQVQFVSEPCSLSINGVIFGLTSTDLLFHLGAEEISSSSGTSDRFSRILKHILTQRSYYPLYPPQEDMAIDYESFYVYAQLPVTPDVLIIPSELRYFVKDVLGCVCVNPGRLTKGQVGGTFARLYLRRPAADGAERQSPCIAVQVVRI
T1 sequence (P49642 whole entry partner): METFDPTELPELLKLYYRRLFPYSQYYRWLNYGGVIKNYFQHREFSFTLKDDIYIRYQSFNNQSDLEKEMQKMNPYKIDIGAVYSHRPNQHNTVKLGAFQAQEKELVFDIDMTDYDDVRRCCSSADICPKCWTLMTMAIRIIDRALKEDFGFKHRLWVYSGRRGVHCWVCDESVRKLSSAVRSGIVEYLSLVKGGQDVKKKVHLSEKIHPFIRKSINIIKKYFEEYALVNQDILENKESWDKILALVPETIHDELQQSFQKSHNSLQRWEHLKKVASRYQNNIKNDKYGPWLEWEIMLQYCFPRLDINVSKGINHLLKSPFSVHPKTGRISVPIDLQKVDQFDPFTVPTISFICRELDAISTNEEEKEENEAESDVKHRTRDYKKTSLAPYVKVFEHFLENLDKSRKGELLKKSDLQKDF
T1 sequence (P49643 whole entry partner): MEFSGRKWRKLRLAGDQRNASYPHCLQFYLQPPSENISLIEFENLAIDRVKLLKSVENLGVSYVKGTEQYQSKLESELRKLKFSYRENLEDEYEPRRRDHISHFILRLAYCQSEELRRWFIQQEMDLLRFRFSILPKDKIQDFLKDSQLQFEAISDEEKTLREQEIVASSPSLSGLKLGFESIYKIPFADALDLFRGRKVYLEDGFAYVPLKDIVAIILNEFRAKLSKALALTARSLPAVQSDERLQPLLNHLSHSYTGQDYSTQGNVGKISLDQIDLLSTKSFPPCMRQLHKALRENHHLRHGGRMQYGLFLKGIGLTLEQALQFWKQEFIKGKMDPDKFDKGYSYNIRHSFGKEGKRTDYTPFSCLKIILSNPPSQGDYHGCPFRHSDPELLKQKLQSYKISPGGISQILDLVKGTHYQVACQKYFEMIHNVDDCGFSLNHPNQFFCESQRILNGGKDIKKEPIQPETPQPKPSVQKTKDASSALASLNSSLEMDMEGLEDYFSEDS

In general, IC50 refers to the concentration needed to halve the response being measured. A word on the CC50: it is the concentration that lowers cell viability or growth by half. Turning to `CCOc1nc(N)nc2c1ncn2[C@@H]1O[C@@H]2COP(=O)(OC(C)C)O[C@H]2[C@@]1(C)F` (stereo partly drawn) [PSI-938], the half-maximal inhibitory concentration (IC50) is above 200 µM in [1], above 200 µM in [2], above 200 µM on RNA PolII (setting [8]) and above 500 µM at recombinant human PolRMT. Moreover, the CC50 at 5 days was above 100 µM in [3], above 100 µM in series [4], above 89 µM in series [5] and above 100 µM in series [6].
Turning to `C[C@@]1(O)[C@H](O)[C@@H](CO)O[C@H]1n1ccc(N)nc1=O` [2′CMeC, 2′-C-methyl (2′CMe) cytidine], the 50% inhibitory concentration (IC50) in series [1] was above 200 µM; in series [2], above 200 µM; at RNA PolII (setting [8]), above 200 µM; on recombinant human PolRMT it was 230 ± 90 µM. Moreover, the half-maximal cytotoxic concentration (CC50) at 5 days in series [3] was 68 ± 26 µM; in series [4], 19 ± 6 µM; in [5] it was 69 ± 1 µM; in [6], above 100 µM. This compound also showed a half-maximal cytotoxic concentration (CC50) at 3 days in [7] (PC-3 cells) of 100 µM.
Take `CC(C)OC(=O)[C@H](C)N[P@](=O)(OC[C@H]1O[C@@](C#N)(c2ccc3c(N)ncnn23)[C@](C)(O)[C@@H]1OC(=O)C(C)C)Oc1ccccc1` [GS-6620]: the 50% inhibitory concentration (IC50) in series [1] is above 200 µM; in [2] it was above 200 µM; at RNA PolII (setting [8]) it was above 200 µM; at recombinant human PolRMT, above 500 µM. Moreover, the 50% cytotoxic concentration (CC50) at 5 days in [3] was 45 ± 2 µM.
Regarding `C[C@@]1(F)[C@H](O)[C@@H](CO)O[C@H]1n1ccc(N)nc1=O` [PSI-6130], the half-inhibitory concentration (IC50) in series [1] was above 200 µM; in series [2] it was above 200 µM; on RNA PolII (setting [8]) it was above 200 µM; on recombinant human PolRMT, above 500 µM. For the same compound, the CC50 at 5 days in [3] was above 100 µM; in series [4], above 100 µM; in series [5], above 89 µM; in series [6], above 100 µM.
As to `COc1nc(N)nc2c1ncn2[C@@H]1O[C@H](COP(=O)(N[C@@H](C)C(=O)OCC(C)(C)C)Oc2cccc3ccccc23)[C@@H](O)[C@@]1(C)O` (stereo partly drawn) [BMS-986094], the IC50 at recombinant human PolRMT worked out at 52 µM. For the same compound, in series [3], the half-maximal cytotoxic concentration (CC50) at 5 days turned out to be 0.84 ± 0.26 µM. Further, in [7], the CC50 at 3 days came to 0.48 ± 0.07 µM.
For `C[C@@]1(O)[C@H](O)[C@@H](COP(=O)(O)OP(=O)(O)OP(=O)(O)O)O[C@H]1n1cnc2c(=O)[nH]c(N)nc21` [2′CMeGTP], the IC50 in series [1] is above 200 µM; in series [2], above 200 µM; on RNA PolII (nucleotide analogs (Table 6)), above 500 µM; on RNA PolII (setting [8]), above 200 µM.
For `[N-]=[N+]=N[C@]1(CO)O[C@@H](n2ccc(N)nc2=O)[C@H](O)[C@@H]1O` [4′-AzidoC, 4′-azido cytidine], the IC50 in series [1] was above 200 µM; in series [2], above 200 µM; at RNA PolII (setting [8]) it was above 200 µM; on recombinant human PolRMT, 3.8 ± 2 µM. The CC50 at 5 days in [3] is above 50 µM; in series [4], above 100 µM; in series [5], above 89 µM; in series [6] it was above 100 µM. For the same compound, the half-maximal cytotoxic concentration (CC50) at 3 days in series [7] (PC-3 cells) came to 4.5 ± 0.3 µM.
`CC(C)OC(=O)[C@H](C)N[P@](=O)(OC[C@H]1O[C@@H](n2ccc(=O)[nH]c2=O)[C@](C)(F)[C@@H]1O)Oc1ccccc1` [Sofosbuvir]: the IC50 in series [1] was above 200 µM; in [2] it was above 200 µM; at RNA PolII (setting [8]), above 200 µM; at recombinant human PolRMT it was above 500 µM. In [3], the 50% cytotoxic concentration (CC50) at 5 days was above 100 µM.
